According to article PMC12040169 (PLOS Biology, 2025):

assay: in vitro; details: human, hela cells, % viability

Row | Structure (SMILES) | viability at 28.5 h, 10 µM [%]
1 | C=CCn1c(Cc2csc(NC(=O)c3ccc(C)c(F)c3)n2)n[nH]c1=S [CBK295307] | 80.6
2 | COc1ccc(N2CCN(c3cncc(-c4cccc(N)c4)n3)CC2)cc1OC [CBK066126] | 94.3
3 | O=C(O)CCCc1[nH]nc(O)c1Cc1c(Cl)cccc1Cl [CBK081137] | 105
4 | COc1cc(C)c(Cl)c(C)c1S(=O)(=O)NCc1ccc2c(c1)OCO2 [CBK266518] | 96
5 | CC(CCc1ccc(O)cc1)NC1CCCC1 (stereo not shown) [CBK033987] | 102
6 | Cc1cc2c(cc1C)C(=O)CC1(CCN(C(=O)c3ccco3)CC1)O2 [CBK282819] | 96
7 | Cc1ccc(S(=O)(=O)Nn2cnnc2)cc1 [CBK027263] | 108
8 | Brc1ccc(-c2nc(CSc3nnnn3C3CCCCC3)no2)cc1 [CBK026913] | 110
9 | O=C(CCc1c[nH]c2ccccc12)OCc1nnc(-c2ccccc2)o1 [CBK269642] | 101
10 | COc1cccc(CN2CCN(S(=O)(=O)c3ccccc3[N+](=O)[O-])CC2)c1OC [CBK264162] | 87.4
11 | O=c1oc2ccccc2c2c1nnn2CCCN1CCOCC1 [CBK261470C] | 95.2
12 | CCCC1C(C(N)=O)=C(C)NC(C)=C1C(N)=O [CBK019102] | 105
13 | CCCN1C[C@H](NC(=O)CC)[C@@H](c2ccc(OC)cc2)C1 [CBK282134] | 82.3
14 | CCCc1cc(C(=O)N2CCCN(Cc3cnn(CC)c3)CC2)[nH]n1 [CBK305293] | 92.3
15 | O=S(=O)(Nc1ccccn1)N1CCCCC1 [CBK269490] | 92.3
16 | Cc1c(C(=O)N2CCN(C3CCN(C)CC3)CC2)nnn1-c1cccc(C(F)(F)F)c1 [CBK149088] | 94.2
17 | Cc1cn(S(=O)(=O)c2ccc(Cl)cc2)cn1 [CBK026492] | 113
18 | O=C(NC1CCNCC1)c1cc2ccccc2[nH]1 [CBK168609] | 84.6
19 | O=C(O)c1ccc(C(=O)c2c3c(=O)n(-c4ccccc4C(=O)O)c(=O)c3cc3c(=O)n(-c4ccccc4C(=O)O)c(=O)c23)cc1 [CBK261183] | 91.7
20 | N#Cc1ccc(-c2cnc(NC(=O)C(F)(F)F)c(-c3ccc(C(=O)N4CCOCC4)cc3)n2)cc1 [CBK093819] | 94.2
21 | CCCc1ccc(-c2cc(C(=O)NCc3cccnc3)c3ccccc3n2)cc1 [CBK300494] | 92.6

Row | Structure (SMILES) | viability at 28.5 h, 10 µM [%]
22 | CN1Cc2ccccc2CC1C(=O)N1CCc2ncc(Cl)cc2C1 (stereo not shown) [CBK282568] | 85.5
23 | C=C(C)Cn1c(SCC(C)C)nnc1-c1ccc(O)nc1 [CBK200094] | 92.2
24 | Cn1c(CCNC(=O)NC2CCCCC2)nc2cc([N+](=O)[O-])ccc21 [CBK268453] | 95.7
25 | COc1ccc2c(c1)C(NC(=O)C1CCCN(C)C1)CC(C)(C)O2 (stereo not shown) [CBK307631] | 113
26 | COCCCOc1cc(NC(C)C)ncn1 [CBK115885] | 92.6
27 | O=[N+]([O-])c1ccc(OCC(O)CN2CCCN(c3nc4ccc(Cl)cc4s3)CC2)cc1 (stereo not shown) [CBK074647] | 85.9
28 | COc1cc(OC)c2c(c1)OC1(CCN(C(=O)C3CCCO3)CC1)CC2=O (stereo not shown) [CBK156476] | 93.3
29 | N=c1n(CCN2CCOCC2)c2ccccc2n1CC(O)c1cccs1 (stereo not shown) [CBK262895C] | 99.1
30 | COc1csc(C(=O)Nc2ncn(CC(=O)N3CCCCCC3)n2)c1 [CBK304463] | 84.6
31 | O=c1c(Cc2ccc(Cl)cc2)c(O)ccn1Cc1ccncc1 [CBK291161] | 98.7
32 | O=C(Nc1ccccc1Cl)N1CCCCC1CO (stereo not shown) [CBK156180] | 91.9
33 | COc1ccc(OC)c(-c2ccc(NC(=O)c3ccc(Cl)cc3Cl)c(C(=O)O)c2)c1 [CBK000393D] | 90.8
34 | CC(C)NC(=O)CSc1nc2ccccc2[nH]1 [CBK072235] | 92.9
35 | COc1cccc(CC(=O)N2CCC(Cc3ccccc3-c3cccs3)(C(N)=O)CC2)c1 [CBK285908] | 112
36 | O=C1N=C(N2CCCCCC2)SC1CC(=O)N1CCCc2ccccc21 (stereo not shown) [CBK063336] | 93.4
37 | COc1ccc(-c2coc3c(C)c4oc(=O)c(CC(=O)O)c(C)c4cc23)cc1 [CBK269403] | 105
38 | Cc1ccc(OCC(=O)N2N=C(CC(C)C)CC2(O)C(F)(F)F)cc1C (stereo not shown) [CBK293935] | 91.5
39 | CC(C)c1n[nH]c(=S)n1C1CCc2ccccc21 (stereo not shown) [CBK288374] | 87.1
40 | CC(NC(=O)CCc1cc2n(n1)CCNC2)c1cn2ccsc2n1 (stereo not shown) [CBK306551] | 91.2
41 | CCOc1nccnc1N1CCNCC1 [CBK001899G] | 93.1
42 | COc1cc(C2CC(=O)N(c3cc(C)on3)C(=O)C2)cc(OC)c1OC [CBK006810] | 109

Row | Structure (SMILES) | viability at 28.5 h, 10 µM [%]
43 | CCCC12CN3CC(CCC)(CN(C1)C3c1ccc(O)c(OC)c1)C2=O (stereo not shown) [CBK265531] | 89
44 | Cc1ccc(S(=O)(=O)N(CC(=O)NCc2ccco2)c2cc(C)cc(C)c2)cc1 [CBK263982] | 86.2
45 | O=c1[nH]c(-c2cc(Cc3ccccc3Cl)ccc2O)nc2ccccc12 [CBK291220] | 98.3
46 | COc1cc(C(F)(F)F)c(-c2ncn[nH]2)cn1 [CBK006362] | 101
47 | Cc1nccn1CCN(C)C(=O)c1ccc2c(c1)ncn2C [CBK281993] | 98.8
48 | Nc1nonc1C(=O)NCCNc1ccc([N+](=O)[O-])cn1 [CBK268279] | 97.7
49 | N[C@H](CCc1nc2ccccc2[nH]1)C(=O)O [CBK172614] | 98.2
50 | Cn1cc(CN2CCCN(C(=O)c3ccc4ccccc4n3)CC2)cn1 [CBK305369] | 102
51 | Cc1nc2c(c(=O)[nH]1)CCN(Cc1cccc(Oc3ccccc3)c1)C2 [CBK283989] | 81.9
52 | Cc1nonc1OCCN1CCN(c2cc3c(cc2[N+](=O)[O-])n(C)c(=O)n3C)CC1 [CBK267676] | 104
53 | CCCn1cnc2cc(NC(=O)Cn3cccc(C(=O)NC4CCCCC4)c3=O)ccc21 [CBK286075] | 93
54 | Cc1c(C(C)NC(=O)Nc2ccc(F)cc2F)cnn1C (stereo not shown) [CBK266986] | 95.1
55 | C/C(=N\N=C1/NC(=O)C(CC(=O)O)S1)c1ccc(CC(C)C)cc1 (stereo not shown) [CBK006661] | 93.5
56 | O=C(NC1CCCc2c1cnn2Cc1ccccc1)c1ccncc1 (stereo not shown) [CBK282250] | 93.8
57 | CC(=O)Nc1ccc(C(=O)N2CCNC(=O)C2Cc2ccccc2-c2cccc(C)c2)cc1 (stereo not shown) [CBK285837] | 106
58 | COc1cccc(C(=O)N2CCC(NC(=O)c3csc(-c4ccccc4)n3)CC2)c1 [CBK155030] | 90.4
59 | O=C(Nc1cccnc1)c1cc2cc(OC(F)(F)F)ccc2[nH]1 [CBK107313] | 95.1
60 | COC(=O)c1c(NC(=O)C(=O)NCc2ccccn2)sc2c1CCCC2 [CBK269505] | 95.2
61 | CC1CCCC(C)N1C(=O)Cn1ncn2c(cc3ccsc32)c1=O (stereo not shown) [CBK284191] | 110
62 | COc1ccc(CNC(=O)c2cnc(-c3ccc(F)cc3)c(-c3ccc(C(C)=O)s3)c2)cc1 [CBK036577] | 90.7

same assay, conditions: human, hela cells, % viability, bulk resorufin, single well

Row | Structure (SMILES) | viability at 28.5 h, 10 µM [%]
63 | O=C(c1ccco1)N1CCC2(CC1)OCc1cc(Cl)ccc1O2 [CBK061068] | 94.4
64 | COc1ccccc1N1C(=O)NC(=O)/C(=C/NCCCO)C1=O [CBK261618] | 87.8
